Ends that are not written are not given here.
Assays:
[1] = test system: mice; assay: Paralysis of the hind legs of mice after intraperitoneal injection; assay type: in vivo; conditions: sublethal dose, 50 μg of the conjugate (2.5 mg of toxin/kg) intraperitoneally, mouse
Method: When injected intraperitoneally, crotamine causes a quick paralysis, in less than 15 minutes, of the hind legs of mice, which is the typical physiological effect of this toxin.
Crotamine (1 mg) was suspended in 1 ml buffer (100 mM sodium carbonate/bicarbonate, pH 9.3) and conjugated to the fluorescent dye Cy3, a cyanine derivative supplied as a bifunctional form of an NHS-type ester in the Fluorolink Cy3 dye pack kit (Amersham Biosciences). To verify if Cy3-crotamine is biologically active, a sublethal dose, 50 μg of the conjugate (corresponding to 2.5 mg of toxin/kg) was intraperitoneally injected into a mouse. The crotamine linked to Cy3 complex caused the typical paralysis response of the hind legs in less than 15 minutes after injection.

[2] = test system: blastocyts; assay: Internalization of Cy3-conjugated crotamine in blastocysts in vitro; assay type: cell-based, murine; conditions: cell cytoplasm, FIG. 1
Method: Embryonic bodies (EBs) were obtained by the hanging drop method, as described above, using culture medium containing crotamine at various concentrations (100 μM to 0.1 μM), changing the medium every two to three days. To analyze the crotamine location in EBs under development, crotamine was substituted with crotamine linked to Cy3 (Cy3-crotamine) during the final 24 hours of incubation. Compact murine morulae (8-16 cells) were obtained from the oviduct and cultivated for 24 hours at 37° C. in 5% CO2, in individual microwells of V-bottom plates (Costar) with […] microwells in M16 medium (supplier: Sigma) and Cy3-crotamine (1-0.1 μM). After 24 hours of culture, normally developed blastocyst numbers were compared within the control and the experimental group.

[3] = test system: cells from the peritoneal liquid and from the murine bone marrow; assay: In vivo incorporation of Cy3-crotamine after intraperitoneal injection; set-up: species or system CD-1 strain mice
Method: In vitro assay: Semiconffluent cultures of pluripotent and differentiation ES cells (homogeneous cell population), as well as other cell cultures of normal and tumor origin, were kept in small laminar slides placed in 24-well plates containing appropriate culture medium. Cells were incubated for 2-3 minutes to 72 hours in the presence of Cy3-crotamine, under concentrations between 10 μM and 0.01 μM, or as control, just in the presence of the dye agent Cy3 diluted in 1 ml PBS (control). In in vivo assays, 1 ml of 1 μM Cy3-crotamine or the pure control dye agent Cy3 (1 ml) in PBS were intraperitoneally injected into a mouse (line CD-1). After 3 hours, cells from the bone marrow (mixed cell population), spleen and peritoneal liquid (mixed cell population) were isolated. Cells from the peritoneal liquid adhered to the microscope slides for one hour in RPMI medium supplemented with 10% FCS and no antibiotics at 37° C., under humid atmosphere and 5% CO2. In all assays, cells were washed twice with cold solutions of 0.1 M PBS, pH 7.4, fixed with 3.7% formaldehyde in PBS for fifteen minutes and washed twice with PBS. Microscope slides were prepared in the PBS/glycerol (1:1) solution. Alternatively, non-fixed cells were washed twice with PBS and observed in the confocal microscope.
(§1) To analyze the specific binding of Cy3-crotamine to chromatin and centrosome (a pair of small organelles named the centrioles), the same experimental procedure, as described above, was used, the sole difference consisting in the pre-treatment of ES cells and murine embryonic fibroblasts with 1 μM of free crotamine, followed by treatment with the conjugated crotamine, Cy3-crotamine, for 15 minutes more. A similar experiment was conducted in vivo, by injecting in mice both the conjugated and the free crotamine. As a control, 1 μM of Cy3-crotamine was used and incubated for 15 minutes. For the confocal microscopy analysis, cells were prepared as described above. Experiments with animals were carried out according to the international ethical recommendations for the use of animals.

[4] = test system: centrosome; assay: Marker for centrosome; assay type: cell-based; conditions: cells from the peritoneal liquid of mice and ES cells, FIG. 9
Method: as §1
Embryonic bodies, obtained according to the protocol as described above, after three days, adhered to small glass slides. On the following day, actively proliferating cells were simultaneously labeled with 5-bromo-2′-deoxyuridine (BrDU) and Cy3-crotamine. BrDU-labeled cell detection by the monoclonal antibody anti-BrDU (clone BU-1) was made according to manufacturer's recommendations (Amersham-Pharmacia Biotech). The secondary antibody was conjugated to the fluorescent compound FITC. […] Microscope slides were assembled in a PBS/glycerol solution (1:1) and analysed in a confocal microscope. […]

[5] = test system: B16F10 cells tumor; assay: Tumor labeling by cy3-crotamine; assay type: in vivo, Balb/c mouse; conditions: 5 μg/animal intraperitoneal, 24 hours after
Method: The cells were maintained in Dulbecco's modified Eagle's cell culture medium (DMEM; Invitrogen, Carlsbad, Calif.) supplemented with 15% fetal calf serum (FCS; Invitrogen). The cells were kept at 37° C. with humidity and 5% CO2. After preparing a cell suspension with about 5×10^6 cells/ml of PBS [phosphate buffered solution], approximately 0.2 ml of this suspension was subcutaneously or endovenously (retroorbital injection) injected into each Balb/c mouse, of 4 to 6 weeks-old with body weight between 16 to 20 g. For negative control, the animals were injected with 0.2 ml of PBS. Before setting up the experiments, the animals were kept under 12 hour light-dark cycle, and were allowed to have water and food ad libitum. All animals were caged and handled under ethical conditions according to international rules of animal care, stated by the International Animal Welfare Recommendations, and in accordance with the Guidelines for the Use of Animals in Biochemical Research
About 8 to 12 days after subcutaneous injection of B16F10 cells, the visible ‘melanoma’ tumors were removed and analyzed.
To observe the accumulation of fluorescently labeled crotamine [Cy3-crotamine] into tumors, injected mice were treated by a single intraperitoneal injection of 5 μg of cy3-crotamine/animal. 24 hours after, the animals were sacrificed and the ‘melanoma’ tumors and internal tissues were removed and analyzed [frozen/Tissue-Tek and Paraplast block preparations]. The frozen slices were stained with DAPI and analyzed by confocal microscopy. […]
To observe the accumulation of fluorescently labeled crotamine [Cy3-crotamine] into tumors, injected mice were treated by a single intraperitoneal injection of 5 μg of cy3-crotamine/animal. 24 hours after, the animals were sacrificed and the internal tissues (including those showing metastasis) were removed and analyzed [frozen/Tissue-Tek and Paraplast block preparations]. The frozen slices were stained with DAPI and analyzed by confocal microscopy.

[6] = test system: 3T3 cell line; assay: Transfection of GFP plasmid DNA by crotamine peptide fragments; assay type: cell-based, mouse; conditions: for treatment time giving the best result: 24 and 48 hours tested
Method: 3T3 cells (spontaneously immortalized primary mouse fibroblasts) or COS-7 (cells derived from kidney of African green monkey) were plated (1.5×10^5) in 6-wells plate (dimension of 6×35 mm), containing DMEM culture medium with 10% fetal bovine serum (FBS) and […] L-glutamine, with no antibiotics, 1 or 2 days before the transfection until reaching 60% to 80% confluence of the plate. Transfection was performed in DMEM medium ([…]) with 2% FBS and 80 or 100 μM chloroquine. Aggregates (crotamine plus 2 μg DNA in 0.2 ml HBM) were added in each well, on the cells in culture. After five hours of incubation at 37° C., under humid atmosphere and 5% CO2, the medium was substituted with another one containing 10% FBS. In the control culture wells, DNA was added in the same concentration and they were processed in the same way of experimental samples. After 24 and 48 hours, cells were washed with PBSA and fixed with 3.7% formaldehyde. The transfection medium was substituted with DMEM medium, containing 10% FBS, and the transgenic expression was then evaluated 24 to 48 hours after the transfection. The efficiency of transfection as determined by DNA-peptide aggregates was compared with that obtained by using lipofectamine, following routine protocol.
Two peptides were synthesized based on crotamine sequence, e.g. two sequences corresponding to fragments of crotamine, i.e. Crot2-18 ([…] (SEQ ID NO: 3)), herewithin designated as peptide 1, and Crot27-39 ([…] (SEQ ID NO: 4)), herewithin designated as peptide 2. The ability and efficiency of these two peptides to transfect cells in vitro and in vivo were analysed. The same protocol which was used for natural crotamine, as described in Example 9 was followed: Peptides were mixed with the plasmid DNA containing the gene coding for GFP (green fluorescent protein). After forming the complex with DNA, peptides were put on Petri dishes containing 3T3 cell line and left in the CO2 oven for 24 and 48 hours. Subsequently, cells were fixed and the result of transfection was analysed by confocal microscopy. As controls, the same cells were transfected by using Lipofectamin, as well as the crotamine molecule with 42 amino acid residues.

[7] = three hours after intraperitoneal injection, CD-1 mice
[8] = subcutaneous injection of B16F10

Row | Substance | time to typical paralysis response of the hind legs after injection [1] | fluorescence in blastocysts (confocal microscopy) [2] | fluorescence in cytoplasm of mouse megakaryocyte ([3]; FIG. 5E-G) | fluorescence after pretreatment with non-labeled crotamine ([3]; cells pretreated with non-labeled crotamine, megakaryocyte, FIG. 5H) | signal in cytoplasm of living cells of the peritoneal liquid ([3]; living cells, FIG. 3A-C) | signal in nucleus of living cells of the peritoneal liquid ([3]; living cells, FIG. 3A-C) | signals on cells from the murine bone marrow [3, 7] | signals on cytoplasm and nucleus of cells from the peritoneal liquid [3, 7] | marking of the centrosome cycle [4] | fluorescent signal inside the cell mass of B16F10 cells tumor ([5]; endovenous injection of B16F10) | fluorescent signal inside the cell mass of B16F10 cells tumor [5, 8] | localization in tumor cells (overlay with DAPI) [5, 8] | signals from actively proliferating 3T3 cells compared with the original crotamine [6] | treatment time giving the best result ([6]; 3T3 cells) [h] | green fluorescence corresponding to GFP expression ([6]; 3T3 cells, in comparison with peptide 2, confocal microscopy)
1 | Cy3-crotamine: crotamine conjugated to the fluorescent dye Cy3, a cyanine derivative (YKQCHKKGGHCFPKEKICLPPSSDFGKMDCRWRWKCCKKGSG; disulfide (positions not given here); not fully specified (bridges); ends not checked; also: Cy3 dye label, site not given here; UniProt Q9PWF3 23-64, looked up) | less than 15 minutes | intense fluorescence | weak fluorescence | Strong fluorescence restricted to the cytoplasm | strong | moderate | strong signals | strong signals | functions as a marker for the centrosome cycle | strong fluorescent signal | strong fluorescent signal | observed in the nucleus of the cells |  |  | 
2 | KMDCRWRWKCCKK [peptide 2] |  |  |  |  |  |  |  |  |  |  |  |  | no distinctive signals | 48 | 
3 | KQCHKKGGHCFPKEKIC [peptide 1] |  |  |  |  |  |  |  |  |  |  |  |  | no distinctive signals | 48 | more intense green fluorescence

From patent US8278265B2, “Methods, kits and compositions comprising crotamine” (Fundacao de Amparo a Pesquisa do Estado de Sao Paulo—FAPESP, priority 2005, dated 2012)
